pIC50: −log10 of the molar value.
Experiments:
[1] = tested on: carotid artery thrombosis; test: Cynomolgus monkey electrolytic injury-induced carotid artery thrombosis model; type: in vivo; settings: oral, 1 to 2 hours before the experiment
Source text: The efficacy of the PAR4 antagonists of the present invention in preventing thrombosis can also be measured in a variety of in vivo assays. Exemplary mammals that can provide models of thrombosis and hemostasis to test the effectiveness of the PAR4 antagonists of the present invention as antithrombotic agents include, but are not limited to, guinea pigs and primates. Relevant efficacy models include, but are not limited to, electrolytic injury-induced carotid artery thrombosis, FeCl3-induced carotid artery thrombosis and arteriovenous-shunt thrombosis. […]
On the day of the study, compounds or vehicles were administered orally at 1 to 2 hours before the experiment. […] Blood pressure and heart rate were monitored to maintain normal vital signs.
Carotid blood flow was measured with an appropriately sized TRANSONIC® flow probe and a TRANSONIC® perivascular flowmeter (TS420 Model, Transonic Systems Inc., Ithaca, N.Y.). It was continuously recorded over a 90-min period to monitor thrombosis-induced occlusion. Integrated carotid blood flow was measured by the area under the flow-time curve. It was expressed as percent of total control carotid blood flow, which would result if control blood flow had been maintained continuously for 90 min. […]

[2] = tested on: carotid artery thrombosis; test: cynomolgus monkey electrolytic injury-induced carotid artery thrombosis model; type: in vivo; settings: arterial thrombosis model in cynomolgus monkeys
[3] = tested on: human washed platelets; test: Alpha-thrombin induced platelet aggregation assay; type: cell-based; settings: 0.1 h, read-out: IC50 for the inhibition of platelet aggregation
Procedure: Example D is an alpha-thrombin-induced platelet aggregation assay. Alpha-thrombin activates both PAR1 and PAR4.
Human blood was collected in ACD (85 mM tri-sodium citrate, 78 mM citric acid, 110 mM D-glucose, pH 4.4) at a ratio of 1.4 ml per 10 ml blood. PRP was isolated by centrifugation at 170 g for 14 minutes and platelets were further pelleted by centrifugation at 1300 g for 6 minutes. Platelets were washed once with 10 ml ACD containing 1 mg/ml bovine serum albumin. Platelets were resuspended at ˜2.5×10^8/ml in Tyrode's Buffer (137 mM NaCl, 2 mM KCl, 1.0 mM MgCl2, 1 mM CaCl2, 5 mM glucose, 20 mM HEPES pH 7.4).
The ability of PAR4 antagonist to inhibit platelet aggregation induced by alpha-thrombin was tested using human washed platelets. […] Aggregation was initiated by addition of 1.5 nM alpha-thrombin (Haematologic Technologies, Essex Junction, Vt.) to 300 μl of washed platelets at stirring speed of 1000 rpm. […] IC50 was calculated using vehicle control as 0% inhibition.

[4] = molecular target: PAR1 (Homo sapiens (Human), UniProt P25116); settings: ACS patients, phase III; cited from earlier work
PAR1, sequence (P25116 22-425): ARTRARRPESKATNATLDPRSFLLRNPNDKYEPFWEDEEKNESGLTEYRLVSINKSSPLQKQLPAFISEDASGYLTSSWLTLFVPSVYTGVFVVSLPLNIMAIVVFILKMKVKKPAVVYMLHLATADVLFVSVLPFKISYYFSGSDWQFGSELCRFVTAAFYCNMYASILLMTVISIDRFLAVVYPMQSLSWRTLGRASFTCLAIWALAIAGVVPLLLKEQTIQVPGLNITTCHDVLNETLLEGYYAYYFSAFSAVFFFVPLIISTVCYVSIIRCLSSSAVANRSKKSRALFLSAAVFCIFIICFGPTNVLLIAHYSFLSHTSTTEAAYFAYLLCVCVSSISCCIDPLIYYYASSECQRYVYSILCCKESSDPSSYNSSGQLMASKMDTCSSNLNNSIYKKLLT

| pIC50 [3] | Compound | antithrombotic efficacy in electrically-induced arterial thrombus model (dose response, FIG. 1C) [1] | inhibition of thrombus formation / antithrombotic efficacy [2] | cardiovascular events [4] | risk of major bleeding [4] |
| --- | --- | --- | --- | --- | --- |
| 8.30 | COc1cc(OCc2csc(-c3ccccc3)n2)c2cc(-c3cn4nc(OC)sc4n3)oc2c1 [Example 3, 2-Methoxy-6-(6-methoxy-4-((2-phenylthiazol-4-yl)methoxy)benzofuran-2-yl)imidazo[2,1-b][1,3,4]thiadiazole] | in vivo antithrombotic efficacy | antithrombotic efficacy | – | – |
| – | CCOC(=O)N[C@@H]1CC[C@@H]2[C@@H](C1)C[C@H]1C(=O)O[C@H](C)[C@H]1[C@H]2/C=C/c1ccc(-c2cccc(F)c2)cn1 [vorapaxar] | – | – | did not significantly reduce | significantly increased |

Reference: US10047103B2, “Imidazothiadiazole and imidazopyrazine derivatives as protease activated receptor 4 (PAR4) inhibitors for treating platelet aggregation” (BRISTOL-MYERS SQUIBB COMPANY, priority 2012, dated 2018)
